In US20210267944A1 (BioXcel Therapeutics, Inc., priority 2018, published 2021):
Counter-ions that a name gives are not always drawn. Like-named read-outs stand apart in the source and are kept apart here.

Conditions: for Diastolic blood pressure Max / Diastolic blood pressure Mean ± SD / Diastolic blood pressure Median / Diastolic blood pressure Min / Pulse rate, Max / Pulse rate, Mean ± SD / Pulse rate, Median / Pulse rate, Min / Respiration rate, Max / Respiration rate, Mean ± SD / Respiration rate, Median / Respiration rate, Min / Systolic blood pressure, Max / Systolic blood pressure, Mean ± SD / Systolic blood pressure, Median / Systolic blood pressure, Min: SDAT patients, IV infusion
Protocol: Study drug IV infusion was to be stopped at any time if any of the following occurred: • There was more than 20 mm Hg decrease in systolic or diastolic blood pressure. • There was an isolated drop in Systolic BP<100 mm of Hg. • There was an isolated drop Diastolic BP<60 mm of Hg. • There was a decrease in heart rate of 20 beats per minute or a drop below 50 beats per minute. • Attainment of a RASS of −1 at the end of each 30 minutes infusion period.
Return to baseline parameters was defined as BP falling within 15 mm of Hg of baseline reading prior to drug administration or HR falling within 10 beats per minute of baseline reading prior to drug administration.

Cc1cccc([C@H](C)c2cnc[nH]2)c1C [dexmedetomidine hydrochloride]
all the vital signs values (SDAT): within clinically acceptable limits | Diastolic blood pressure Max (00:00 Hr): 90 mm of Hg | Diastolic blood pressure Mean ± SD (00:00 Hr): 80.9 ± 9.87 mm of Hg | Diastolic blood pressure Median (00:00 Hr): 83.5 mm of Hg | Diastolic blood pressure Min (00:00 Hr): 64 mm of Hg | Pulse rate, Max (00:00 Hr): 91 beats/min | Pulse rate, Mean ± SD (00:00 Hr): 79.0 ± 9.02 beats/min | Pulse rate, Median (00:00 Hr): 78.0 beats/min | Pulse rate, Min (00:00 Hr): 64 beats/min | Respiration rate, Max (00:00 Hr): 26 breaths/min | Respiration rate, Mean ± SD (00:00 Hr): 19.6 ± 2.50 breaths/min | Respiration rate, Median (00:00 Hr): 19.5 breaths/min | Respiration rate, Min (00:00 Hr): 17 breaths/min | Systolic blood pressure, Max (00:00 Hr): 169 mm of Hg | Systolic blood pressure, Mean ± SD (00:00 Hr): 143.2 ± 13.60 mm of Hg | Systolic blood pressure, Median (00:00 Hr): 140.0 mm of Hg | Systolic blood pressure, Min (00:00 Hr): 125 mm of Hg | Diastolic blood pressure Max (00:15 Hr): 92 mm of Hg | Diastolic blood pressure Mean ± SD (00:15 Hr): 82.1 ± 8.46 mm of Hg | Diastolic blood pressure Median (00:15 Hr): 84.0 mm of Hg | Diastolic blood pressure Min (00:15 Hr): 70 mm of Hg | Pulse rate, Max (00:15 Hr): 89 beats/min | Pulse rate, Mean ± SD (00:15 Hr): 78.2 ± 9.85 beats/min | Pulse rate, Median (00:15 Hr): 80.0 beats/min | Pulse rate, Min (00:15 Hr): 57 beats/min | Respiration rate, Max (00:15 Hr): 26 breaths/min | Respiration rate, Mean ± SD (00:15 Hr): 18.3 ± 3.20 breaths/min | Respiration rate, Median (00:15 Hr): 17.0 breaths/min | Respiration rate, Min (00:15 Hr): 15 breaths/min | Systolic blood pressure, Max (00:15 Hr): 155 mm of Hg | Systolic blood pressure, Mean ± SD (00:15 Hr): 138.0 ± 10.35 mm of Hg | Systolic blood pressure, Median (00:15 Hr): 134.5 mm of Hg | Systolic blood pressure, Min (00:15 Hr): 122 mm of Hg | Diastolic blood pressure Max (00:30 Hr): 89 mm of Hg | Diastolic blood pressure Mean ± SD (00:30 Hr): 80.3 ± 7.99 mm of Hg | Diastolic blood pressure Median (00:30 Hr): 82.5 mm of Hg | Diastolic blood pressure Min (00:30 Hr): 66 mm of Hg | Pulse rate, Max (00:30 Hr): 94 beats/min | Pulse rate, Mean ± SD (00:30 Hr): 80.5 ± 10.43 beats/min | Pulse rate, Median (00:30 Hr): 76.5 beats/min | Pulse rate, Min (00:30 Hr): 64 beats/min | Respiration rate, Max (00:30 Hr): 24 breaths/min | Respiration rate, Mean ± SD (00:30 Hr): 18.1 ± 2.73 breaths/min | Respiration rate, Median (00:30 Hr): 18.0 breaths/min | Respiration rate, Min (00:30 Hr): 13 breaths/min | Systolic blood pressure, Max (00:30 Hr): 155 mm of Hg | Systolic blood pressure, Mean ± SD (00:30 Hr): 135.9 ± 10.05 mm of Hg | Systolic blood pressure, Median (00:30 Hr): 133.5 mm of Hg | Systolic blood pressure, Min (00:30 Hr): 120 mm of Hg | Diastolic blood pressure Max (00:45 Hr): 86 mm of Hg | Diastolic blood pressure Mean ± SD (00:45 Hr): 76.4 ± 9.42 mm of Hg | Diastolic blood pressure Median (00:45 Hr): 79.0 mm of Hg | Diastolic blood pressure Min (00:45 Hr): 62 mm of Hg | Pulse rate, Max (00:45 Hr): 90 beats/min | Pulse rate, Mean ± SD (00:45 Hr): 76.0 ± 9.48 beats/min | Pulse rate, Median (00:45 Hr): 77.0 beats/min | Pulse rate, Min (00:45 Hr): 58 beats/min | Respiration rate, Max (00:45 Hr): 20 breaths/min | Respiration rate, Mean ± SD (00:45 Hr): 18.1 ± 1.91 breaths/min | Respiration rate, Median (00:45 Hr): 18.0 breaths/min | Respiration rate, Min (00:45 Hr): 15 breaths/min | Systolic blood pressure, Max (00:45 Hr): 160 mm of Hg | Systolic blood pressure, Mean ± SD (00:45 Hr): 138.3 ± 14.29 mm of Hg | Systolic blood pressure, Median (00:45 Hr): 137.0 mm of Hg | Systolic blood pressure, Min (00:45 Hr): 118 mm of Hg | Diastolic blood pressure Max (01:00 Hr): 90 mm of Hg | Diastolic blood pressure Mean ± SD (01:00 Hr): 74.5 ± 8.97 mm of Hg | Diastolic blood pressure Median (01:00 Hr): 73.5 mm of Hg | Diastolic blood pressure Min (01:00 Hr): 63 mm of Hg | Pulse rate, Max (01:00 Hr): 89 beats/min | Pulse rate, Mean ± SD (01:00 Hr): 75.3 ± 10.08 beats/min | Pulse rate, Median (01:00 Hr): 74.0 beats/min | Pulse rate, Min (01:00 Hr): 60 beats/min | Respiration rate, Max (01:00 Hr): 20 breaths/min | Respiration rate, Mean ± SD (01:00 Hr): 18.1 ± 1.73 breaths/min | Respiration rate, Median (01:00 Hr): 18.0 breaths/min | Respiration rate, Min (01:00 Hr): 15 breaths/min | Systolic blood pressure, Max (01:00 Hr): 160 mm of Hg | Systolic blood pressure, Mean ± SD (01:00 Hr): 134.4 ± 15.76 mm of Hg | Systolic blood pressure, Median (01:00 Hr): 133.0 mm of Hg | Systolic blood pressure, Min (01:00 Hr): 110 mm of Hg | Diastolic blood pressure Max (01:15 Hr): 84 mm of Hg | Diastolic blood pressure Mean ± SD (01:15 Hr): 74.6 ± 10.17 mm of Hg | Diastolic blood pressure Median (01:15 Hr): 79.5 mm of Hg | Diastolic blood pressure Min (01:15 Hr): 61 mm of Hg | Pulse rate, Max (01:15 Hr): 94 beats/min | Pulse rate, Mean ± SD (01:15 Hr): 73.4 ± 11.56 beats/min | Pulse rate, Median (01:15 Hr): 71.5 beats/min | Pulse rate, Min (01:15 Hr): 58 beats/min | Respiration rate, Max (01:15 Hr): 20 breaths/min | Respiration rate, Mean ± SD (01:15 Hr): 18.4 ± 2.20 breaths/min | Respiration rate, Median (01:15 Hr): 19.5 breaths/min
